According to patent US5405831A, “Treatment of bone disorders” (Amylin Pharmaceuticals, Inc., priority 1989, dated 1995):
Read-outs that look alike come from different tables or passages of the source.

How the values were obtained:
[1] = tested on: rat osteoclasts; assay: bone resorption assay (disaggregated rat osteoclasts on human cortical bone slices); conditions: osteoclasts counted on hormone-treated versus control bone slices
Description: Following incubation (37° C.; 15 minutes), the bone slices were removed, washed gently in Minimal Essential Medium with FCS (10%, v/v) (MEM/FCS) and placed in separate wells (each well contained 5-6 slices and 900 μl MEM/FCS). Either one or two homogeneous suspensions of osteoclasts were used for each experiment. When two suspensions were used, the experiment was divided into two blocks, each of which included all treatments and one suspension. After further incubation (37° C., 10% humidified CO2, 10 minutes), 100 μl of MEM/FCS containing the test substance was added. Finally, bone slices were incubated overnight (37° C., 10% humidified CO2, 18 hours) and quantified in terms of cell numbers and bone resorption. After fixation in glutaraldehyde, cells were stained with toluidine blue and examined by transmitted light microscopy. In order to rule out toxic effects, osteoclasts were counted on three slices for every variable and their numbers were then compared on hormone-treated and control bone slices. […] Osteoclastic excavations, each defined by a continuous border within an area of unresorbed bone were counted. The area of bone surface resorbed was calculated by tracing the outline of the concavities into an image processor (Sight Systems, Newbury, Berks).

[2] = tested on: rat osteoclasts; conditions: Zaidi et al. 1988; cited from earlier work
[3] = tested on: rabbit; conditions: cited from earlier work
[4] = tested on: chick; conditions: higher doses; cited from earlier work
[5] = tested on: isolated osteoclasts; assay: functional responses of isolated osteoclasts (motility, cytosolic calcium, retraction); format: cell-based
Description: Thus, it appears that osteoclast activity may be restrained via two receptor types; calcitonin acts at both while amylin acts mainly via only one, reducing motility, reducing resorption and probably acting via the second messenger cAMP (Zaidi et. al. 1990, J. Endocrinol 126, 473-481.

With `CC[C@H](C)[C@H](NC(=O)[C@H](C)NC(=O)CNC(=O)[C@H](Cc1ccccc1)NC(=O)[C@H](CC(N)=O)NC(=O)[C@H](CC(N)=O)NC(=O)[C@H](CO)NC(=O)[C@H](CO)NC(=O)[C@H](Cc1c[nH]cn1)NC(=O)[C@@H](NC(=O)[C@H](CC(C)C)NC(=O)[C@H](Cc1ccccc1)NC(=O)[C@H](CC(N)=O)NC(=O)[C@H](C)NC(=O)[C@H](CC(C)C)NC(=O)[C@H](CCCNC(=N)N)NC(=O)[C@H](CCC(N)=O)NC(=O)[C@@H](NC(=O)[C@H](C)NC(=O)[C@@H]1CSSC[C@H](NC(=O)[C@@H](N)CCCCN)C(=O)N[C@@H](CC(N)=O)C(=O)N[C@@H]([C@@H](C)O)C(=O)N[C@@H](C)C(=O)N[C@@H]([C@@H](C)O)C(=O)N1)[C@@H](C)O)C(C)C)C(=O)N[C@@H](CC(C)C)C(=O)N[C@@H](CO)C(=O)N[C@@H](CO)C(=O)N[C@H](C(=O)N[C@@H](CC(N)=O)C(=O)N[C@H](C(=O)NCC(=O)N[C@@H](CO)C(=O)N[C@@H](CC(N)=O)C(=O)N[C@H](C(=O)N[C@@H](Cc1ccc(O)cc1)C(N)=O)[C@@H](C)O)C(C)C)[C@@H](C)O` [amylin] the “osteoclast cell number or viability” value [1] was “without affecting cell number of viability”.
For CGRP, the osteoclastic bone resorption [2] is listed as “inhibits osteoclastic bone resorption”, the “effect on plasma calcium” value ([3]; rabbit, higher doses) is listed as “parathyroid hormone-like hypercalcemic effect” and the “effect on plasma calcium” value ([3]; rabbits, lower doses) is listed as “hypocalcaemic”. For the same compound, the “effect on plasma calcium” value [4] was “parathyroid hormone-like hypercalcemic effect”.
For calcitonin, the cell retraction [5] was “caused cell retraction”, the cytosolic calcium [5] was “elevated cytosolic calcium” and the osteoclast motility [5] was “inhibited osteoclast motility”.
